Results reported in patent publication US20020040011A1, “Naphthoquinone compositions and uses thereof” (priority 2000, published 2002).

Tested on: murine fibrosarcomas (RIF-1 cells)
Assay: Chemopotentiation of cisplatin by menadione: tumor growth delay of RIF-1 fibrosarcomas in C3H mice
Format: in vivo
Conditions: for Median (TVQT) / TVQT ± S.E. (mean tumor volume quadrupling time) / TVQT/CTVQT (ratio of treated over untreated control): intradermal RIF-1 tumors, female C3H mice; for Median (TVQT) / TVQT ± S.E. (mean tumor volume quadrupling time) / TVQT/CTVQT (ratio of treated over untreated control) / Delay: i.p., menadione 10 mg/kg, cisplatin 4 mg/kg, combination: menadione 30 min before cisplatin; for Delay: median treated minus median control, RIF-1 tumors, C3H mice
Procedure: Transplantable experimental murine fibrosarcomas (2×10^5 RIF-1 cells) were grown intradermally in the flanks of 3 month old female C3H mice (Charles River, Holister, Calif.). When the tumors reached a volume of approximately 100 mm^3, the mice were randomly assigned to each experimental group (4 mice per group). The experimental compositions were prepared as described in Table 1. Menadione was obtained from Sigma Chemical Co. (St. Louis, Mo.) and was made to the appropriate concentration in DMSO. Cisplatin (David Bull Laboratories- Mulgrave, Australia, lot. 5201844x) was made to the appropriate concentration in water for injection. The compositions were injected systemically (i.e., intraperitoneally, i.p.), in a volume of 100 microliters. For the treatment of group 3, menadione was injected 30 minutes prior to the injection of cisplatin. After treatment, the growth of the tumors was monitored three times per week by caliper measurements of three perpendicular diameters of the tumor and calculation of tumor volume from the formula: V=π/6×D1×D2×D3, where D1-3 are the diameters in mm along the three different perpendicular axes. The tumors were followed until they reached a size of four times their day zero treatment volume (TVQT), or up to 30 days after treatment, whichever came first. The data is expressed as the “tumor volume quadrupling time” (TVQT) mean and as the “delay.” Mean TVQT is the mean days required for individual tumors to grow to four times the tumor volume at the initial treatment day. The “delay” is the median of days required for a tumor to grow to four times the mean size of the treated group, minus the median of days required to grow to four times the mean size of the control group. The data is also expressed as the ratio of the tumor volume quadrupling time of the treated tumor over the untreated control group ([…]). Increasing values of this ratio indicate increased antitumor response.

**Q.** Which results are given for `N.N.[Cl][Pt][Cl]` [Cisplatin, cis-diamminedichloroplatinum II]?
**A.** antiproliferative activity of cisplatin when used with the chemopotentiator menadione (group 3 (menadione 10 mg/kg then cisplatin 4 mg/kg) versus either agent alone, more than additive effect): enhanced; Median (TVQT): 8.3 days; TVQT ± S.E. (mean tumor volume quadrupling time): 8.4 ± 0.3 days; TVQT/CTVQT (ratio of treated over untreated control): 1.3; Delay: 1.44 days

**Q.** What does the source list for `CC1=CC(=O)c2ccccc2C1=O` [Menadione, 2-Methyl-1,4-Naphthoquinone]?
**A.** Median (TVQT): 7.5 days; TVQT ± S.E. (mean tumor volume quadrupling time): 7.0 ± 0.5 days; TVQT/CTVQT (ratio of treated over untreated control): 1.0; Delay: 0.61 days
